Data published in patent US20030109418A1, “Methods for identifying compounds for inhibition of neoplastic lesions, and pharmaceutical compositions containing such compounds” (priority 1999, published 2003).
Read-outs that look alike come from different tables or passages of the source.

Columns and labels:
[1] = biological target: T1, cGMP binding sites of the GST-cGB-PDE5 protein (Homo sapiens, UniProt O76074); test: cGMP binding assay with GST-cGB-PDE5 fusion protein; conditions: for competition with cGMP binding at high concentration: 100 μM competitor, cGMP 2 μM
T1 construct: made in house; host or cells: E. coli BL21 (DE3)

[2] = test system: cGMP PDE purified from human colon HT-29 cultured tumor cells; test: cGMP PDE inhibition assay; assay type: biochemical; conditions: for PDE Inhibition: qualitative activity profile
[3] = test system: HT-29 human colon carcinoma cell line; test: Growth inhibition, SRB assay, HT-29; assay type: cell-based; design: Growth Inhibition: key to the marks not given beside the values; conditions: for Growth Inhibition: qualitative activity profile; for IC50: HT-29 treated for 6 days, SRB assay, read-out: Growth inhibition (IC50)
[4] = test system: HT-29 colon adenocarcinoma cells; test: Apoptosis by DNA fragmentation assay in HT-29; assay type: cell-based, human; conditions: qualitative activity profile; further: key: −: Not active; +: Slightly active; ++: Moderately active; +++: Strongly active; ++++: Highly active
[5] = test system: premalignant lesions in mouse mammary gland organ culture; test: Mammary gland organ culture model; assay type: cell-based; conditions: for Mammary Gland Organ Culture: qualitative activity profile; on mammary gland organ culture: key: −: Not active; +: Slightly active; ++: Moderately active; +++: Strongly active; ++++: Highly active
Excerpt: Test compounds identified by the above methods can be tested for antineoplastic activity by their ability to inhibit the incidence of pre-neoplastic lesions in a mammary gland organ culture system. This mouse mammary gland organ culture technique has been successfully used by other investigators to study the effects of known antineoplastic agents such as certain NSAIDs, retinoids, tamoxifen, selenium, and certain natural products, and is useful for validation of the screening method of the present invention.
For example, female BALB/c mice can be treated with a combination of estradiol and progesterone daily, in order to prime the glands to be responsive to hormones in vitro. The animals are sacrificed, and thoracic mammary glands are excised aseptically and incubated for ten days in growth media supplemented with insulin, prolactin, hydrocortisone, and aldosterone. DMBA (7,12-dimethylbenz(a)anthracene) is added to medium to induce the formation of premalignant lesions. Fully developed glands are then deprived of prolactin, hydrocortisone, and aldosterone, resulting in the regression of the glands but not the pre-malignant lesions.
The test compound is dissolved in DMSO and added to the culture media for the duration of the culture period. At the end of the culture period, the glands are fixed in 10% formalin, stained with alum carmine, and mounted on glass slides. The incidence of forming mammary lesions is the ratio of the glands with mammary lesions to […]. The incidence of mammary lesions in test compound treated glands is compared with that of the untreated glands.
The extent of the area occupied by the mammary lesions can be quantitated by projecting an image of the gland onto a digitation pad. The area covered by the gland is traced on the pad and considered as 100% of the area. The space covered by each of the non-regressed structures is also outlined on the digitization pad and quantitated by the computer.
Mammary gland organ culture experiment were performed as previously described (Mehta and Moon, Cancer Research, 46: 5832-5835, 1986). […] The data support the hypothesis that cyclooxygenase inhibition is not necessary for the anti-neoplastic properties of desired compounds.

[6] = biological target: T2, purified cyclooxygenase (Type 1, COX-I) from ram seminal vesicles (Ovis aries, UniProt P05979); test: COX inhibition assay, purified cyclooxygenase; assay type: biochemical; conditions: for COX Inhibition: qualitative activity profile
T2 construct: using purified cyclooxygenase from ram seminal vesicles as described previously; tissue Cayman Chemical, Ann Arbor, Mich; (named in the general protocol only); host or cells: ram seminal vesicles
T2 sequence (P05979 25-600): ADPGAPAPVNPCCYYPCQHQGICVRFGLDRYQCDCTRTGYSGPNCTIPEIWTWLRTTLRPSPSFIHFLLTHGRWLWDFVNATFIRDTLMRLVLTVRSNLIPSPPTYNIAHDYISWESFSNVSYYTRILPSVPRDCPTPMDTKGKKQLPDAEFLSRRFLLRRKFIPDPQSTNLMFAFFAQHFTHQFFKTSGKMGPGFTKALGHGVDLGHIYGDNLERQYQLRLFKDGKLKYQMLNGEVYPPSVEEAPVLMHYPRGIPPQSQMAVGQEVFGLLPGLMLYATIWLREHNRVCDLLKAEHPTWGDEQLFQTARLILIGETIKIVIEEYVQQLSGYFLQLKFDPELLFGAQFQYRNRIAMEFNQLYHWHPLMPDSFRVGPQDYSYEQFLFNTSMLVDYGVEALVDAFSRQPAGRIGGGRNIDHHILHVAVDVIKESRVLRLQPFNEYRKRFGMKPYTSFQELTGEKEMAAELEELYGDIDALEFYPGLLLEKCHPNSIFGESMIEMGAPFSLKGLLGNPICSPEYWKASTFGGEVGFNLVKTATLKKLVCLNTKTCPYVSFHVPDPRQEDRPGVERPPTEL

[7] = test system: HT-29 cells; test: Apoptosis and necrosis by morphology (acridine orange and ethidium bromide); assay type: cell-based, human; conditions: HT-29 treated for 6 days
Excerpt: Apoptosis occurs naturally during normal tissue turnover and during embryonic development of organs and limbs. Apoptosis also is induced by cytotoxic T-lymphocytes and natural killer cells, by ionizing radiation and by certain chemotherapeutic drugs. Inappropriate regulation of apoptosis is thought to play an important role in many pathological conditions including cancer, AIDS, or Alzheimer's disease, etc. Compounds can be screened for induction of apoptosis using cultures of tumor cells maintained under conditions as described above. Treatment of cells with test compounds involves either pre- or post-confluent cultures and treatment for two to seven days at various concentrations. Apoptotic cells are measured in both the attached and “floating” compartments of the cultures. Both compartments are collected by removing the supernatant, trypsinizing the attached cells, and combining both preparations following a centrifugation wash step (10 minutes, 2000 rpm). The protocol for treating tumor cell cultures with sulindac and related compounds to obtain a significant amount of apoptosis has been described in the literature. (See, Piazza, G. A., et al., Cancer Research, 55:3110-16, 1995, which is incorporated herein by reference). The novel features include collecting both floating and attached cells, identification of the optimal treatment times and dose range for observing apoptosis, and identification of optimal cell culture conditions.
Following treatment with a compound, cultures can be assayed for apoptosis and necrosis by florescent microscopy following labeling with acridine orange and ethidium bromide. The method for measuring apoptotic cell number has previously been described by Duke & Cohen, “Morphological And Biochemical Assays Of Apoptosis,” Current Protocols In Immunology, Coligan et al., eds., 3.17.1-3.17.16 (1992, which is incorporated herein by reference).
For example, floating and attached cells can be collected by trypsinization and washed three times in PBS. Aliquots of cells can be centrifuged. The pellet can then be re-suspended in media and a dye mixture containing acridine orange and ethidium bromide prepared in PBS and mixed gently. The mixture can then be placed on a microscope slide and examined for morphological features of apoptosis.
Reference compounds and test compounds were analyzed for their novel PDE inhibitory activity in accordance with the protocols for the assay, supra. […] Apoptotic and necrotic cell death was determined previously (Duke and Cohen, In: Current Protocols in Immunology, 3.17.1-3.17.16, New York, John Wiley and Sons, 1992). […] All data were collected from the same experiment.
The apoptosis inducing activity for a series of phosphodiesterase inhibitors was determined. HT-29 cell were treated for 6 days with various inhibitors of phosphodiesterase. Apoptosis and necrosis were determined morphologically after acridine orange and ethidium bromide labeling in accordance with the assay described, supra.

[8] = test system: cGMP and cAMP levels in HT-29 cells; test: Cyclic nucleotide levels in cultured cells by radioimmunoassay; assay type: cell-based, human; conditions: HT-29 cells treated 30 minutes
[9] = biological target: T3, PDE peak A (PDE5) from SW480 cells (Homo sapiens, UniProt O76074); test: cGMP hydrolysis inhibition, PDE peak A from SW480; assay type: biochemical
T3 construct: endogenous in cells; host or cells: SW480 colon cancer cells, DEAE-Trisacryl M fraction

Nc1ncnc2c1ncn2[C@@H]1O[C@@H]2COP(=O)(O)O[C@H]2[C@H]1O [Cyclic AMP]
competition with cGMP in binding of GST-cGB-PDE5 [1]: did not compete with cGMP in binding

CCCCOC1C2OP(=O)(O)OCC2OC1n1cnc2c(N)ncnc21 (centres unmarked) [2′-O-butyl-cAMP]
competition with cGMP in binding of GST-cGB-PDE5 ([1]; 3H-cGMP 2 μM): did not compete with cGMP in binding

Nc1nc2c(nc(Br)n2[C@@H]2O[C@@H]3COP(=O)(O)O[C@H]3[C@H]2O)c(=O)[nH]1 [Compound 8-bromo-cGMP]
competition with cGMP binding at high concentration [1]: can partially compete

CC1=C(CC(=O)O)c2cc(F)ccc2/C1=C\c1ccc(Cl)cc1 [Compound C, (Z)-5-Fluoro-2-methyl-1-(p-chlorobenzylidene)-3-acetic acid]
cGMP PDE inhibitory activity, % Inhibition at 10 μM ([2]; 10 μM): <25%
Growth-inhibitory activity, % Inhibition at 100 μM [3]: 80%

ribo-(E)-1-Triazolo-[2′, 3′: 1″, 3″]-1-(butan-1′, 4′-olido)-[3′, 4′: 1, 2]-6-flouro-2-methyl-3-(p-methylsulfonylbenzylidene)-indan [G]
Apoptosis [4]: ++
PDE Inhibition [2]: −
Growth Inhibition [3]: +++
Mammary Gland Organ Culture [5]: +++
COX Inhibition [6]: −

O=c1ccn([C@@H]2O[C@@H]3COP(=O)(O)O[C@H]3[C@H]2O)c(=O)[nH]1 [cUMP]
competition with cGMP in binding of GST-cGB-PDE5 ([1]; 3H-cGMP 2 μM): did not compete with cGMP in binding

O=c1[nH]cnc2c1ncn2[C@@H]1O[C@@H]2COP(=O)(O)O[C@H]2[C@H]1O [Cyclic IMP]
competition with cGMP binding at high concentration [1]: can partially compete

CC(=O)NC(CSC12CC(=O)OC1(C)/C(=C/c1ccc(S(C)(=O)=O)cc1)c1ccc(F)cc12)C(=O)O (racemic) [D, rac-(E)-1-(butan-1′,4′-olido)-[3′,4′: 1,2]-6-fluoro-2-methyl-3-(p-methylsulfonylbenzylidene)-1S-indanyl-N-acetylcysteine]
Apoptosis [4]: −
PDE Inhibition [2]: −
Growth-inhibitory activity, % Inhibition at 100 μM [3]: 78%
Growth Inhibition [3]: ++
Mammary Gland Organ Culture [5]: −
Cyclooxygenase inhibitory activity, % Inhibition at 100 μM [6]: <25%
COX Inhibition [6]: −

COc1nc2c([nH]1)c(=O)n(C)c(=O)n2CC(C)C [8-methoxy-IBMX]
IC50 [3]: > 200 µM
% Apoptosis [7]: 2%
% Necrosis [7]: 1%

CC1=C(CC(=O)O)c2cc(F)ccc2/C1=C\c1ccc([S+](C)[O-])cc1 (centres unmarked) [sulindac]
inhibition of the formation of premalignant lesions ([5]; mammary gland organ culture): effectively inhibit the formation of premalignant lesions

CCCCOc1cc(CC2CNC(=O)N2)ccc1OC (centres unmarked) [RO-20-1724]
IC50 [3]: > 200 µM
% Apoptosis [7]: 11%
% Necrosis [7]: 2%

rac-(E)-1-(butan-1′, 4′-olido)-[3′, 4′: 1,2]-6-fluoro-2-methyl-3-(p-methylsulfonylbenzylidene)-1S-indanyl-glutathione)
Apoptosis [4]: −
PDE Inhibition [2]: −
Growth Inhibition [3]: ++
Mammary Gland Organ Culture [5]: −
COX Inhibition [6]: −

CC1=C(CC(=O)N(C2CCCCC2)C2CCCCC2)c2cc(F)ccc2/C1=C\c1ccc(S(C)(=O)=O)cc1 [F, (Z)-5-Fluoro-2-methyl-1-(p-methylsulfonylbenzylidene)-3-indenylacetamide, N,N′-dicyclohexyl]
Apoptosis [4]: +
PDE Inhibition [2]: −
Growth Inhibition [3]: ++
Mammary Gland Organ Culture [5]: −
COX Inhibition [6]: −

Clc1cccc(Nc2nnc(-c3ccccc3)c3ccccc23)c1 [MY5445, 1-(3-chloroanilino)-4-phenyphthalazine]
Apoptosis [4]: +++
PDE Inhibition [2]: +++
IC50 [3]: 5 µM
Growth Inhibition [3]: +++
Mammary Gland Organ Culture [5]: +
Cyclooxygenase inhibitory activity, % Inhibition at 100 μM [6]: 94%
COX Inhibition [6]: ++++
% Apoptosis [7]: 80%
% Necrosis [7]: 5%

CCCCOC1C2OP(=O)(O)OCC2OC1n1cnc2c(=O)[nH]c(N)nc21 (centres unmarked) [2′-O-butyl-cGMP]
competition with cGMP in binding of GST-cGB-PDE5 ([1]; 3H-cGMP 2 μM): did not compete with cGMP in binding

COc1ccc(C2CNC(=O)C2)cc1OC1CCCC1 (centres unmarked) [Rolipram]
effect on cAMP levels [8]: increased cAMP

CC(C)Cn1c(=O)n(C)c(=O)c2[nH]cnc21 [IBMX]
IC50 [3]: > 100 µM
% Apoptosis [7]: 4%
% Necrosis [7]: 13%

CC1(C)C(=O)Nc2ccc(C3=NNC(=O)CC3)cc21 [Indolidan]
Ratio (IC50 Peak A/Peak B) [9]: <0.31

CCCOc1ccccc1-c1nc2nn[nH]c2c(=O)[nH]1 [Zaprinast]
competition with cGMP in binding of GST-cGB-PDE5 ([1]; 3H-cGMP 2 μM): do not bind to the cGMP binding sites of PDE5

Nc1ccn([C@@H]2O[C@@H]3COP(=O)(O)O[C@H]3[C@H]2O)c(=O)n1 [cCMP]
competition with cGMP in binding of GST-cGB-PDE5 ([1]; 3H-cGMP 2 μM): did not compete with cGMP in binding
